Laboratory results as given in ChEMBL document CHEMBL5052836, “Interleukin-15 activity antagonist peptide” (2019).
Each block holds one compound with its values, some of them ahead of it. Activity calls are given as the source filed them. The calls are words filed in the database; no cut-off is given here.

Assays:
[1] = system: Synovial cell; test: Inhibition of IL-15-induced IL-6 secretion in human synovial cells at 50 ug/ml and measured after 48 hrs by ELISA relative to control; format: functional, cell-based; details: dose 50.0 µg/ml
[2] = species on record: Homo sapiens; test: Antagonist activity at IL-15Ralpha (unknown origin) assessed as inhibition of IL-15/IL-15Ralpha complex formation at 20 ug/ml using TMB as substrate incubated for 1 hr and measured after 1 hr by ELISA relative to control; details: filed as antagonist, dose 20.0 µg/ml
[3] = Inhibition of cell proliferation in IL-15-induced mouse CTLL-2 cells measured after 72 hrs by MTT assay; format: functional, cell-based; details: CTLL-2, 72 h
[4] = system: Synovial cell; test: Inhibition of IL-15-induced TNF-alpha secretion in human synovial cells at 50 ug/ml and measured after 48 hrs by ELISA relative to control; format: functional, cell-based; details: dose 50.0 µg/ml

- inhibition [2]: 92%
Structure (SMILES): CSCC[C@H](NC(=O)[C@@H](C)NC(=O)[C@@H](NC(=O)[C@@H](NC(=O)[C@@H](N)CCCCN)C(C)C)[C@@H](C)O)C(=O)N[C@@H](CCCCN)C(=O)N[C@@H](CS)C(=O)N[C@@H](Cc1ccccc1)C(=O)N[C@@H](CC(C)C)C(=O)N[C@@H](CC(C)C)C(=O)O
- inhibition [1]: Active
- IC50 [3]: 28 µM
- inhibition [4]: Active

Structure (SMILES): CSCC[C@H](NC(=O)[C@H](C)NC(=O)[C@@H](NC(=O)[C@@H](NC(=O)[C@@H](N)CCCCN)C(C)C)[C@@H](C)O)C(=O)N[C@@H](CCCCN)C(=O)N[C@@H](CS)C(=O)N[C@@H](Cc1ccccc1)C(=O)N[C@H](CC(C)C)C(=O)N[C@@H](CC(C)C)C(=O)O
- IC50 [3]: 134 µM

Structure (SMILES): CSCC[C@H](NC(=O)[C@H](C)NC(=O)[C@@H](NC(=O)[C@H](NC(=O)[C@@H](N)CCCCN)C(C)C)[C@@H](C)O)C(=O)N[C@@H](CCCCN)C(=O)N[C@@H](CS)C(=O)N[C@@H](Cc1ccccc1)C(=O)N[C@@H](CC(C)C)C(=O)N[C@@H](CC(C)C)C(=O)O
- IC50 [3]: 142 µM

Structure (SMILES): CSCC[C@H](NC(=O)[C@H](C)NC(=O)[C@@H](NC(=O)[C@@H](NC(=O)[C@@H](N)CCCCN)C(C)C)[C@@H](C)O)C(=O)N[C@@H](CCCCN)C(=O)N[C@@H](CS)C(=O)N[C@H](Cc1ccccc1)C(=O)N[C@@H](CC(C)C)C(=O)N[C@@H](CC(C)C)C(=O)O
- IC50 [3]: 118 µM

- inhibition [2]: 92%
Structure (SMILES): CSCC[C@H](NC(=O)[C@@H](C)NC(=O)[C@@H](NC(=O)[C@@H](NC(=O)[C@H](N)CCCCN)C(C)C)[C@@H](C)O)C(=O)N[C@@H](CCCCN)C(=O)N[C@@H](CSSC[C@H](NC(=O)[C@H](CCCCN)NC(=O)[C@H](CCSC)NC(=O)[C@@H](C)NC(=O)[C@@H](NC(=O)[C@@H](NC(=O)[C@H](N)CCCCN)C(C)C)[C@@H](C)O)C(=O)N[C@@H](Cc1ccccc1)C(=O)N[C@@H](CC(C)C)C(=O)N[C@@H](CC(C)C)C(=O)O)C(=O)N[C@@H](Cc1ccccc1)C(=O)N[C@@H](CC(C)C)C(=O)N[C@@H](CC(C)C)C(=O)O
- inhibition [1]: Active
- IC50 [3]: 12 µM
- inhibition [4]: Active

Structure (SMILES): CSCC[C@H](NC(=O)[C@@H](C)NC(=O)[C@@H](NC(=O)[C@@H](NC(=O)[C@@H](N)CCCCN)C(C)C)[C@@H](C)O)C(=O)N[C@@H](CCCCN)C(=O)N[C@H](CSSC[C@@H](NC(=O)[C@H](CCCCN)NC(=O)[C@H](CCSC)NC(=O)[C@@H](C)NC(=O)[C@@H](NC(=O)[C@@H](NC(=O)[C@@H](N)CCCCN)C(C)C)[C@@H](C)O)C(=O)N[C@@H](Cc1ccccc1)C(=O)N[C@@H](CC(C)C)C(=O)N[C@@H](CC(C)C)C(=O)O)C(=O)N[C@@H](Cc1ccccc1)C(=O)N[C@@H](CC(C)C)C(=O)N[C@@H](CC(C)C)C(=O)O
- IC50 [3]: 56 µM

Structure (SMILES): CSCC[C@H](NC(=O)[C@H](C)NC(=O)[C@H](NC(=O)[C@@H](NC(=O)[C@@H](N)CCCCN)C(C)C)[C@H](C)O)C(=O)N[C@@H](CCCCN)C(=O)N[C@@H](CS)C(=O)N[C@@H](Cc1ccccc1)C(=O)N[C@@H](CC(C)C)C(=O)N[C@@H](CC(C)C)C(=O)O
- IC50 [3]: 159 µM

- inhibition [2]: 96%
Structure (SMILES): CSCC[C@H](NC(=O)[C@@H](C)NC(=O)[C@@H](NC(=O)[C@@H](NC(=O)[C@@H](N)CCCCN)C(C)C)[C@@H](C)O)C(=O)N[C@@H](CCCCN)C(=O)N[C@@H](CSSC[C@H](NC(=O)[C@H](CCCCN)NC(=O)[C@H](CCSC)NC(=O)[C@@H](C)NC(=O)[C@@H](NC(=O)[C@@H](NC(=O)[C@@H](N)CCCCN)C(C)C)[C@@H](C)O)C(=O)N[C@@H](Cc1ccccc1)C(=O)N[C@@H](CC(C)C)C(=O)N[C@@H](CC(C)C)C(=O)O)C(=O)N[C@@H](Cc1ccccc1)C(=O)N[C@@H](CC(C)C)C(=O)N[C@@H](CC(C)C)C(=O)O
- inhibition [1]: Active
- IC50 [3]: 8 µM
- inhibition [4]: Active

- inhibition [2]: 70%
Structure (SMILES): CSCC[C@H](NC(=O)[C@H](C)NC(=O)[C@@H](NC(=O)[C@@H](NC(=O)[C@@H](N)CCCCN)C(C)C)[C@@H](C)O)C(=O)N[C@@H](CCCCN)C(=O)N[C@@H](CS)C(=O)N[C@@H](Cc1ccccc1)C(=O)N[C@@H](CC(C)C)C(=O)N[C@@H](CC(C)C)C(=O)O
- IC50 [3]: 130 µM

- inhibition [2]: 89%
Structure (SMILES): CSCC[C@H](NC(=O)[C@@H](C)NC(=O)[C@@H](NC(=O)[C@@H](NC(=O)[C@H](N)CCCCN)C(C)C)[C@@H](C)O)C(=O)N[C@@H](CCCCN)C(=O)N[C@@H](CS)C(=O)N[C@@H](Cc1ccccc1)C(=O)N[C@@H](CC(C)C)C(=O)N[C@@H](CC(C)C)C(=O)O
- inhibition [1]: Active
- IC50 [3]: 29 µM
- inhibition [4]: Active

Structure (SMILES): CSCC[C@H](NC(=O)[C@H](C)NC(=O)[C@@H](NC(=O)[C@@H](NC(=O)[C@@H](N)CCCCN)C(C)C)[C@@H](C)O)C(=O)N[C@@H](CCCCN)C(=O)N[C@@H](CS)C(=O)N[C@@H](Cc1ccccc1)C(=O)N[C@@H](CC(C)C)C(=O)N[C@H](CC(C)C)C(=O)O
- IC50 [3]: 133 µM

Structure (SMILES): CSCC[C@H](NC(=O)[C@H](C)NC(=O)[C@@H](NC(=O)[C@@H](NC(=O)[C@@H](N)CCCCN)C(C)C)[C@@H](C)O)C(=O)N[C@@H](CCCCN)C(=O)N[C@H](CS)C(=O)N[C@@H](Cc1ccccc1)C(=O)N[C@@H](CC(C)C)C(=O)N[C@@H](CC(C)C)C(=O)O
- IC50 [3]: 103 µM

Structure (SMILES): CSCC[C@H](NC(=O)[C@H](C)NC(=O)[C@@H](NC(=O)[C@@H](NC(=O)[C@H](N)CCCCN)C(C)C)[C@@H](C)O)C(=O)N[C@@H](CCCCN)C(=O)N[C@@H](CS)C(=O)N[C@@H](Cc1ccccc1)C(=O)N[C@@H](CC(C)C)C(=O)N[C@@H](CC(C)C)C(=O)O
- IC50 [3]: 100 µM

Structure (SMILES): CSCC[C@H](NC(=O)[C@H](C)NC(=O)[C@@H](NC(=O)[C@@H](NC(=O)[C@@H](N)CCCCN)C(C)C)[C@@H](C)O)C(=O)N[C@H](CCCCN)C(=O)N[C@@H](CS)C(=O)N[C@@H](Cc1ccccc1)C(=O)N[C@@H](CC(C)C)C(=O)N[C@@H](CC(C)C)C(=O)O
- IC50 [3]: 168 µM

Structure (SMILES): CSCC[C@H](NC(=O)[C@@H](C)NC(=O)[C@@H](NC(=O)[C@@H](NC(=O)[C@@H](N)CCCCN)C(C)C)[C@@H](C)O)C(=O)N[C@@H](CCCCN)C(=O)N[C@H](CS)C(=O)N[C@@H](Cc1ccccc1)C(=O)N[C@@H](CC(C)C)C(=O)N[C@@H](CC(C)C)C(=O)O
- IC50 [3]: 296 µM

Structure (SMILES): CSCC[C@@H](NC(=O)[C@H](C)NC(=O)[C@@H](NC(=O)[C@@H](NC(=O)[C@@H](N)CCCCN)C(C)C)[C@@H](C)O)C(=O)N[C@@H](CCCCN)C(=O)N[C@@H](CS)C(=O)N[C@@H](Cc1ccccc1)C(=O)N[C@@H](CC(C)C)C(=O)N[C@@H](CC(C)C)C(=O)O
- IC50 [3]: 292 µM
